In patent US7211422B2, “Polypeptide having α-isomaltosylglucosaccharide synthase activity” (Kabushiki Kaisha Hayashibara Seibutsu Kagaku Kenkyujo, priority 2001, dated 2007):

What was measured:
[1] = test system: polypeptide having α-isomaltosylglucosaccharide-forming enzyme activity, obtained in Experiment 1-3; assay: Reaction product from maltooligosaccharide (sugar composition by HPLC); type: biochemical, Bacillus globisporus C11; design: unit not given here; conditions: 1% (w/v) substrate, 35° C., pH 6.0, 8 hours; for Sugar composition of reaction mixture, substrate Maltopentaose: 0.1 unit/g-solid; for Sugar composition of reaction mixture, substrate Maltotetraose: 0.2 unit/g-solid; for Sugar composition of reaction mixture, substrate Maltotriose / Sugar composition of reaction mixture, substrate Mlatose: two units/g-solid
Protocol: To an aqueous solution containing one percent (w/v) of maltose, maltotriose, maltotetraose, or maltopentaose as a substrate was added the polypeptide having α-isomaltosylglucosaccgaride-forming enzyme activity, obtained in Experiment 1-3, in an amount of two units/g-solid for maltose and maltotriose, 0.2 unit/g-solid for maltotetraose, and 0.1 unit/g-solid for maltopentaose, followed by incubation at 35° C. and pH 6.0 for 8 hours. After stopping the enzymatic reaction by a 10-minutes incubation, sugar compositions in the reaction mixture were measured by HPLC using “YMC Pack ODS-AQ303”, a column commercialized by YMC Co., Ltd., Tokyo, Japan, at a column temperature of 40° C. and a flow rate of 0.5 ml/minutes of water, and using as a detector “RI-8012”, a differential refractometer commercialized by Tosoh Corporation, Tokyo, Japan.

[2] = test system: α-isomaltosylglucosaccharide-forming enzyme from Bacillus globisporus N75; assay: Action on saccharides (TLC before and after enzymatic reaction); type: biochemical; design: key: −: it showed no change; +: it showed a slight reduction of the color spot of the substrate and the formation of other reaction product; ++: it showed a high reduction of the color spot of the substrate and the formationof other reaction product; +++: it showed a substantial disappearance of the substrate spot and the formation of other reaction product; conditions: two units/g substrate, substrate 2% (w/v), 30° C., pH 6.0, 24 hours
Protocol: (§1) It was tested whether saccharides can be used as substrates for the polypeptide of α-isomaltosylglucosaccharide-forming enzyme of the present invention. For the purpose, a solution of maltose, maltotriose, maltotetraose, maltopentaose, maltohexaose, maltoheptaose, isomaltose, isomaltotriose, panose, isopanose, trehalose, kojibiose, nigerose, neotrehalose, cellobiose, gentibiose, maltitol, maltotriitol, lactose, sucrose, erlose, selaginose, maltosyl glucoside, or isomaltosyl glucoside was prepared.
(§2) To each of the above solutions was added two units/g substrate of a purified polypeptide specimen of α-isomaltosylglucosaccharide-forming enzyme from either Bacillus globisporus C11 obtained by the method in Experiment 1-3, Bacillus globisporus N75 obtained by the method in Experiment 2-3, or Arthrobacter globiformis A19 obtained by the method in Experiment 3-3, and the resulting each solution was adjusted to give a substrate concentration of 2% (w/v) and incubated at 30° C. and pH 6.0, except for using pH 8.4 for the enzyme from Arthrobacter globiformis A19, for 24 hours. In order to analyze the saccharides in the reaction mixture before and after the enzymatic reaction, silica gel thin-layer chromatography (hereinafter, abbreviated as “TLC”) was carried out. After two-times development using, as a developer, a mixture solution of n-butanol, pyridine, and water (=6:4:1), and, as a thin-layer plate, “KIESELGEL 60”, an aluminum plate (20×20 cm) for TLC commercialized by Merck & Co., Inc., Rahway, USA, the saccharides in the reaction mixture were examined whether the enzyme acted or not by the coloration of sugars by the sulfuric acid-methanol method.

[3] = test system: α-isomaltosylglucosaccharide-forming enzyme from Bacillus globisporus C11; assay: as above; type: biochemical; design: key: −: it showed no change; +: it showed a slight reduction of the color spot of the substrate and the formation of other reaction product; ++: it showed a high reduction of the color spot of the substrate and the formationof other reaction product; +++: it showed a substantial disappearance of the substrate spot and the formation of other reaction product; conditions: two units/g substrate, substrate 2% (w/v), 30° C., pH 6.0, 24 hours
Protocol: as §1, §2

[4] = test system: α-isomaltosylglucosaccharide-forming enzyme from Arthrobacter globiformis A19; assay: as above; type: biochemical; design: key: −: it showed no change; +: it showed a slight reduction of the color spot of the substrate and the formation of other reaction product; ++: it showed a high reduction of the color spot of the substrate and the formationof other reaction product; +++: it showed a substantial disappearance of the substrate spot and the formation of other reaction product; conditions: two units/g substrate, substrate 2% (w/v), 30° C., pH 8.4, 24 hours
Protocol: as §1, §2

Compound	Sugar composition of reaction mixture, substrate Maltopentaose [1]	Sugar composition of reaction mixture, substrate Maltotetraose [1]	Sugar composition of reaction mixture, substrate Maltotriose [1]	Sugar composition of reaction mixture, substrate Mlatose [1]	Enzyme action, N75 enzyme [2]	Enzyme action, C11 enzyme [3]	Enzyme action, A19 enzyme [4]
OC[C@H]1O[C@H](OC[C@H]2OC(O)[C@H](O)[C@@H](O)[C@@H]2O)[C@H](O)[C@@H](O)[C@@H]1O (stereo partly drawn) [Isomaltose, isomaltose]	0.0	0.0	0.0	0.5	−	−	−
OC[C@H]1O[C@H](OC[C@H]2O[C@H](OC[C@H]3OC(O)[C@H](O)[C@@H](O)[C@@H]3O)[C@H](O)[C@@H](O)[C@@H]2O)[C@H](O)[C@@H](O)[C@@H]1O (stereo partly drawn) [Isomaltotriose, isomaltotriose]					−	−	−
O=C[C@H](O)[C@@H](O)[C@H](O[C@@H]1O[C@H](CO)[C@@H](O)[C@H](O)[C@H]1O)[C@H](O)CO [Cellobiose, cellobiose]					−	−	−
OC[C@H]1O[C@@H](O[C@H]2[C@H](O)[C@@H](O)C(O)O[C@@H]2CO)[C@H](O)[C@@H](O)[C@H]1O (stereo partly drawn) [Lactose, lactose]					−	−	−
OC[C@@H](O)[C@@H](O[C@H]1O[C@H](CO)[C@@H](O)[C@H](O)[C@H]1O)[C@H](O)[C@@H](O)CO [Maltitol, maltitol]					−	−	−
OC[C@H]1O[C@H](OC[C@H]2O[C@H](O[C@H]3[C@H](O)[C@@H](O)[C@@H](O[C@H]4[C@H](O)[C@@H](O)[C@@H](O)O[C@@H]4CO)O[C@@H]3CO)[C@H](O)[C@@H](O)[C@@H]2O)[C@H](O)[C@@H](O)[C@@H]1O [Glucosylmaltotriose, α-isomaltosylmaltose]	0.0	6.8	31.5	2.4			
maltotriose	1.9	22.7	45.3	0.8	++	++	++
OC[C@H]1O[C@H](OC[C@H]2O[C@H](O[C@H]3[C@H](O)[C@@H](O)[C@@H](O[C@H]4[C@H](O)[C@@H](O)[C@@H](O[C@H]5[C@H](O)[C@@H](O)C(O)O[C@@H]5CO)O[C@@H]4CO)O[C@@H]3CO)[C@H](O)[C@@H](O)[C@@H]2O)[C@H](O)[C@@H](O)[C@@H]1O (stereo partly drawn) [X, α-isomaltosylmaltotriose]	11.4	30.0	2.1	0.0			
OC[C@H]1O[C@H](O[C@H]2[C@H](O)[C@@H](O)[C@@H](O[C@H]3[C@H](O)[C@@H](O)[C@@H](O[C@H]4[C@H](O)[C@@H](O)C(O)O[C@@H]4CO)O[C@@H]3CO)O[C@@H]2CO)[C@H](O)[C@@H](O)[C@@H]1O (stereo partly drawn) [Maltotetraose, maltotetraose]	19.2	35.1	1.8	0.0	+++	+++	+++
OC[C@H]1O[C@H](O[C@H]2O[C@H](CO)[C@@H](O)[C@H](O)[C@H]2O)[C@H](O)[C@@H](O)[C@@H]1O [Trehalose, trehalose]					−	−	−
OC[C@H]1O[C@H](O[C@H]2[C@H](O)[C@@H](O)[C@@H](OC[C@H]3OC(O)[C@H](O)[C@@H](O)[C@@H]3O)O[C@@H]2CO)[C@H](O)[C@@H](O)[C@@H]1O (stereo partly drawn) [Isopanose, isopanose]					++	++	++
OC[C@H]1O[C@@H](OC[C@H]2OC(O)[C@H](O)[C@@H](O)[C@@H]2O)[C@H](O)[C@@H](O)[C@@H]1O (stereo partly drawn) [Gentibiose, gentibiose]					−	−	−
OC[C@H]1O[C@H](OC[C@H]2O[C@H](O[C@H]3[C@H](O)[C@@H](O)[C@@H](O[C@H]4[C@H](O)[C@@H](O)[C@@H](O[C@H]5[C@H](O)[C@@H](O)[C@@H](O[C@H]6[C@H](O)[C@@H](O)C(O)O[C@@H]6CO)O[C@@H]5CO)O[C@@H]4CO)O[C@@H]3CO)[C@H](O)[C@@H](O)[C@@H]2O)[C@H](O)[C@@H](O)[C@@H]1O (stereo partly drawn) [Y, α-isomaltosylmaltotetraose]	26.8	1.4	0.0	0.0			
isomaltosyl glucoside					−	−	−
maltoheptaose					+++	+++	+++
maltohexaose	4.6	0.0	0.0	0.0	+++	+++	+++
OC[C@H]1O[C@H](O[C@H]2O[C@H](CO)[C@@H](O[C@H]3O[C@H](CO)[C@@H](O)[C@H](O)[C@H]3O)[C@H](O)[C@H]2O)[C@H](O)[C@@H](O)[C@@H]1O [Maltosyl glucoside, maltosyl glucoside]					++	++	++
OC[C@H]1O[C@H](O[C@H]2O[C@H](CO)[C@@H](O)[C@H](O)[C@H]2O[C@H]2O[C@H](CO)[C@@H](O)[C@H](O)[C@H]2O)[C@H](O)[C@@H](O)[C@@H]1O [Selaginose, selaginose]					−	−	−
OC[C@H]1O[C@@](CO)(O[C@H]2O[C@H](CO)[C@@H](O)[C@H](O)[C@H]2O)[C@@H](O)[C@@H]1O [Sucrose, sucrose]					−	−	−
maltopentaose	34.4	3.5	0.0	0.0	+++	+++	+++
OC[C@H]1O[C@H](OC[C@H]2O[C@H](O[C@H]3[C@H](O)[C@@H](O)C(O)O[C@@H]3CO)[C@H](O)[C@@H](O)[C@@H]2O)[C@H](O)[C@@H](O)[C@@H]1O (stereo partly drawn) [Panose, panose]	0.0	0.0	1.2	8.2	−	−	−
